Patent US20240293464A1, “TISSUE REPAIR” (priority 2021, published 2024)

How the values were obtained:
Assay type in all cases: in vivo, horse
tendon/ligament injuries = experiment: Single armed pilot trial in equine connective tissue injuries, lesion size by ultrasonography (Example 7)
Protocol: The time since injury of each horse was noted. […] Side effects and tolerability were also recorded.
14 horses with 15 injured limbs were enrolled in the study between March and May 2021. The injuries comprised 9 tendon and 6 ligament injuries, with 12 injuries on the left side of the horse and 3 on the right. The mean time since injury was ˜ 12 months. The tendon injuries comprised 2 acute injuries (<1 month old) and 7 chronic injuries, with a mean time since injury of 13.1 months, and a range of 9-20 months. The ligamentous injuries comprised 6 chronic injuries, with a mean time since injury of 14.3 months and a range of 4-30 months.
All statistical analysis was performed on SPSS v27. Missing values were handled by last observation carried forward. Descriptive statistics were used to describe baseline and follow-up values. The results were first tested for normality using the Shapiro-Wilk test. The results at weeks 3, 5 and 7 were then analysed compared to baseline using two-tailed paired Student's t-tests once normality was proven. One-tailed Pearson correlation test was performed to determine if outcomes was correlated with time since injury as we hypothesise that older, more established injuries may benefit less from our supplementation.

tendon/ligament lesions = experiment: Equine tendon/ligament lesions from original injury through treatment (Example 8); details: oral 160,000 IU once per day
Protocol: Side effects and tolerability were also recorded. The administration of vitamin A supplement, and the vitamin A supplement used, were the same as that of Example 7. 7 horses with 7 injured limbs were enrolled in the study between March and May 2021. The injuries comprised 3 tendon and 4 ligament injuries. The inclusion criteria were polo horses with diagnosed tendon/ligament injuries regardless of time since injury. The exclusion criteria were horses with acute connective tissue injuries. All statistical analysis was performed on SPSS v27. Missing values were handled by last observation carried forward. Descriptive statistics were used to describe baseline and follow-up values. The results were first tested for normality using the Shapiro-Wilk test. The results at weeks 3, 5 and 7 were then analysed compared to baseline using two-tailed paired Student's t-tests once normality was proven.

Tendon injury = experiment: Echogenicity ratio of tendon lesion or injured tendon to adjacent healthy tendon (Example 9)
Text: Structures composed of different tissue will have different echogenicities. The health of a tissue such as a tendon can be assessed by comparing the echogenicity of the tissue with that of a corresponding healthy tissue. Healthy tendons comprising native tissue and normal architecture are usually hyperechoic and appear white on the sonogram; they are capable of reflecting ultrasound that is cast over the tissue. An injured tendon comprising a lesion will appear as less hyperechoic, and more hypoechoic as tendon fibers are interrupted and defects are usually filled with fluid, blood, or fat. Severe lesions will be anechoic, and will display as completely dark on the sonogram. […] The echogenicity of a tendon lesion was assessed by comparing grey scale statistics of the tendon lesion with the values of healthy adjacent tendon tissue (FIG. 18(b)). Due to equine anatomy, there is always a directly adjacent healthy tendon to use as a control (ultrasonography is […] by depth of tissue). The statistics comprised determining the mean pixel intensity at a number of random points on the lesion and the healthy tendon, and calculating a mean value for the echogenicity of each tissue. A ratio of mean echnogenicity of the lesion and the healthy tissue was determined to assess the extent of damage/healing at the lesion. Vitamin A supplement used, its administration, and the subjects investigated, comprise those of Example 7.

[1] = system: connective tissue injuries (tendon/ligament lesions); experiment: Post-treatment maintenance dose, double-blind randomised placebo-controlled trial (Example 10)
Text: Maintenance dose of vitamin A palmitate (retinyl palmitate) in a vehicle, delivered in dry feed at 8,000 IU per kg feed dry matter.
The methodology and subjects of the investigation comprise those of Example 7.
The trial was a double-blind randomised controlled trial.

injured tendon/ligament = experiment: Effect of activity level on connective tissue improvement (Example 11); details: week 7, full-treatment doses
Protocol: The vitamin A supplement used, its administration, and the subjects of the investigation comprise those of Example 7. Improvement (as a % of baseline) of the injured tendon/ligament was performed at 7 weeks into the trial. All 14 horses were administered full-treatment doses of vitamin A supplement from week 0 to week 7 whilst being put to work. 7 horses were put on light/no work and 7 on full work. The allocation of each horse into one of the two groups was determined by the respective owner of the horse, who decided based on whether they could afford for the horse to be put on light work (and thus investigate the isolated effect of vitamin A supplement on lesion progression) or whether the horse was required to be put back to full work.

SMILES: CCCCCCCCCCCCCCCC(=O)OC/C=C(C)/C=C/C=C(C)/C=C/C1=C(C)CCCC1(C)C [vitamin A supplement, Vitamin A palmitate]
- Mean lesion size (tendon/ligament injuries; baseline, 15 injuries): 41.44%
- Percentage improvement, baseline to week 7 (tendon/ligament injuries; outlier at 20 months since injury, complete avulsion of the ligament): −25%
- Percentage improvement, baseline to week 7 (tendon/ligament injuries; two outlier subjects at 12 months since injury): 100%
- Mean lesion size (tendon/ligament injuries; week 3, oral 160,000 IU once per day, p=0.169 vs baseline): 35.87%
- Mean lesion size (tendon/ligament injuries; week 5, oral 160,000 IU once per day, p<0.001 vs baseline): 28.37%
- Mean lesion size (tendon/ligament injuries; week 7, oral 160,000 IU once per day, p=0.006 vs baseline): 31.73%
- Change in ligament lesion size, baseline to week 7 (tendon/ligament lesions; ligaments, outlier excluded (n=3)): reduction in the size of two of the three lesions
- Mean improvement in lesion size, baseline to week 7 (tendon/ligament lesions; tendons n=3, chronic injuries, p=0.04): 30.62%
- % increase of mean echogenicity ratio (lesion/healthy tendon) (Tendon injury; baseline to week 7): 32.7%
- Mean echogenicity ratio of tendon lesion to adjacent healthy tendon (Tendon injury; baseline, 1 = perfect regeneration of native tendon): 0.52
- Mean echogenicity ratio of injured tendon (area of lesion excluded) to adjacent healthy tendon (Tendon injury; week 0): 0.76
- Mean echogenicity ratio of injured tendon (area of lesion excluded) to adjacent healthy tendon (Tendon injury; week 7, oral 160,000 IU once per day): 0.82
- Mean echogenicity ratio of tendon lesion to adjacent healthy tendon (Tendon injury; week 7, oral 160,000 IU once per day, 1 = perfect regeneration): 0.69
- Change in lesion size from week 7 to week 14, intragroup ([1]; maintenance dose 80,000 IU/day, compared with placebo group): −24.5%
- Mean lesion size of the maintenance dose group ([1]; week 14, after 7 weeks of 80,000 IU/day following 7 weeks of full dose, 31.73% at week 7): ~20.00%
- Lesion health on ultrasonogram in one re-injured subject ([1]; week 14, after 7 weeks of maintenance dose, FIG. 21): the health of this particular lesion deteriorated
- Improvement from baseline (injured tendon/ligament; horses on full work (n=7)): 45.05%
- Improvement from baseline (injured tendon/ligament; horses on light or no work (n=7)): 30.35%
